# Experimental data from US11136325B2, “Pyrrolopyrimidine and pyrrolopyridine derivatives” (GALAPAGOS NV, priority 2017, dated 2021).
# “Also recorded” adds a separate entry of the source.
# Tests used:
# [1] = tested on: MIA induced hyperalgesia in the rat; assay: MIA induced hyperalgesia in the rat, in vivo chronic pain model (weight bearing); settings: 10 mg/kg p.o. daily day 3 to day 16, vs vehicle
# Text: Intra-articular administration of Monosodium Iodoacetate (MIA) in the ipsilateral knee of Sprague Dawley rats leads to development of a robust and long-lasting hyperalgesia and allodynia associated initially with an inflammatory response.
# (§1) Naive rats distribute their body weight equally between the two hind paws. However, when the injected (left) hind knee is inflamed and/or painful, the weight is re-distributed so that less weight is put on the affected limb (decrease in weight bearing on injured limb). Weight bearing through each hind limb is measured using a rat incapacitance tester (Linton Instruments, UK).
# Osteoarthritis (OA) in rats ((Sprague Dawley, male, groups of 10) was induced via injection of MIA solution (Sigma, 12512), 25 μL of 80 mg/mL, (2 mg) into the knee joint of the left hind leg. Weight bearing was assessed on Days 3, 5, 7, 9, 12 & 16, following injection of MIA, for development of chronic pain. At Day 3 weight bearing measurements were taken and animals were ranked and randomised to treatment groups according to their MIA window in a Latin square design. […]
# Weight bearing (g) readings were taken for both right and left hind paws and the difference calculated. Data are expressed as % ratio ipsilateral/contralateral ((WB left/WB right)*100) (mean±s.e.m.)
# Calculation: Ipsilateral reading/contralateral reading x 100. […]
# [2] = tested on: CDAHFD diet-induced NASH in C57/BL6 mice; assay: Diet-induced (CDAHFD) mouse model of non-alcoholic steatohepatitis (NASH); type: in vivo; settings: mouse liver
# Text: This model uses a choline-deficient, L-amino acid-defined, high-fat diet (CDAHFD) consisting of 60 kcal % fat and 0.1% methionine to induce NASH.
# C57/BL6 mice (Charles River) are divided into groups as set out below, the mice are 8 weeks (>20 grs) at the initiation of the induction phase.
# • CDAHFD; Research Diets Inc., Ref. No. A06071302 • Control diet: normal diet (VRF 1, P), Special Diets Services
# In order to induce a non-alcoholic steatohepatitis (NASH), animals will be fed with choline-deficient, L-amino acid-defined, high-fat diet (CDAHFD).
# Mice were randomly assigned to a treatment group and treated according to schedule presented in the Table above until the evaluation phase.
# Steady state PK sampling—Blood will be collected in K2-EDTA tubes to generate plasma. All blood samples will be processed for plasma by centrifugation (5,000 rpm for 10 minutes at 4° C.) within 30 minutes of collection. Plasma from each blood sample will be quickly frozen in liquid nitrogen and stored in a freezer maintained at −80° C. until analysis.
# Final blood sample—Blood will be collected in tubes for serum preparation containing protease inhibitors. All blood samples will be processed by centrifugation (3,500 rpm for 15 minutes at 4° C.). Aliquots of obtained serum samples will be stored frozen at −80° C. until further analysis.
# Tissue samples: The liver is harvested and portions of the left lateral lobe are stored for RNA gene expression analysis, TG assay, sectioned for OH proline measurement, and the rest placed in 10% formalin for histopathological evaluation. Histopathological evaluation includes sections stained with Sirius red to evaluate extent of fibrosis, and sections stained with F4/80 to assess macrophage accumulation.
# A panel of 6 fibrosis genes (Col1A1, Timp1, Pai1, CTGF, TGFβ and Acta2), inflammation genes (TNFα, IL10 and CCL2) and 2 house keeping genes are used for gene expression analysis.
# [3] = tested on: CFA induced hypersensitivity in rat; assay: CFA induced hypersensitivity in rat assessed using weight bearing method; type: in vivo; settings: 10 mg/kg, 24 hours post CFA, 1, 2 and 4 hours post treatment
# Text: Intraplantar injection of Complete Freunds adjuvant (CFA) causes an inflammatory reaction which induces hypersensitivity and oedema, and mimics some aspects of clinical inflammatory pain. These effects can be investigated using equipment to measure weight bearing and plethysmometer.
# as §1, with “hind paw” for “hind knee”, “affected paw” for “affected limb”, “injured paw).” for “injured limb).”, “limb was” for “limb is”
# Rats were placed in the incapacitance tester with the hind paws on separate sensors and the average force exerted by both hind limbs was recorded over 4 seconds.
# Base line weight bearing and paw volume readings were taken and hypersensitivity was induced via injection of CFA (Baseline weight bearing and paw volume recordings were taken prior to induction of insult. Inflammatory hypersensitivity was induced by intraplantar injection of CFA (100 μL of 1 mg/mL solution) intraplantar to the rats left hind paw.
# Animals (Male, Sprague Dawley Rats (Charles River, UK), 212-260 g) were ranked and randomised to treatment groups according to the weight bearing CFA window in a Latin square design. […]
compound,measurement,setting,value
"Cc1c[nH]c2ncnc(N3CCC(NC(=O)c4cc(N)ncc4F)CC3)c12 [Compound 1, 2-amino-5-fluoro-N-[1-(5-methyl-7H-pyrrolo[2,3-d]pyrimidin-4-yl)-4-piperidyl]pyridine-4-carboxamide]",reversal of hypersensitivity (weight bearing),[1],significant and marked reversal; also recorded: significant reversal when compared to vehicle at each time point
same,F4/80 quantification,"[2]; day 73, 15 mg/kg/BID",significant effect
same,Sirius red fibrosis quantification,"[2]; day 73, 15 mg/kg/QD and 15 mg/kg/BID",significant effect
same,expression levels of Pai1 (fibrosis gene panel),"[2]; day 73, at least the highest doses tested (5 mg/kg/QD, 15 mg/kg/QD, 15 mg/kg/BID p.o.), vs CDAHFD diet+vehicle",significant effect
same,expression levels of TGF (fibrosis gene panel),"[2]; day 73, at least the highest doses tested, vs CDAHFD diet+vehicle",significant effect
same,hypersensitivity response (weight bearing),[3],significantly inhibited
